We go through four compounds from article PMC6888825, “Regulation of vanillate and syringate catabolism by a MarR-type transcriptional regulator DesR in Sphingobium sp. SYK-6” (Scientific Reports, 2019).

One series addresses T1, DesR (SLG_12870) (Sphingobium sp. SYK-6, UniProt G2IQU0).
T1 construct: homodimer (42 kDa by SEC)
T1 sequence (G2IQU0 1-172): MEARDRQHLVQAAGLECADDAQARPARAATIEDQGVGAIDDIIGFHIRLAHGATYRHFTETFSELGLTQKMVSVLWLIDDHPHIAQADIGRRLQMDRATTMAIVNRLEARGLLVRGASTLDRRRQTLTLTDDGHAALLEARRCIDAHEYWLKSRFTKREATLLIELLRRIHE
As to the kind of experiment: EMSA, inhibition of DNA binding by purified DesR. As to conditions: effector (derepression); […] DesR, […] DIG-labelled desB, ligM or desR upstream probes, […] compound, pH […] °C. On the technique in general: A gel shift assay detects complexes by their altered migration in electrophoresis.

For series [1], the system named is T2, DesR (His-DesR) (Sphingobium sp. SYK-6), ORF:abc5f351.
T2 sequence: T1 sequence (G2IQU0 1-172)
As to the kind of experiment: EMSA. To be noted: EMSA: 20 mM HEPES pH 7.6, 1 mM EDTA, 10 mM (NH4)2SO4, 1 mM DTT, 0.2% Tween 20, 30 mM KCl, 1 ug poly[d(I-C)], 500 pM probe, 20 C, 20 min.

In series [2] the target is DesR, MarR-type transcriptional regulator (SLG_12870) of Sphingobium sp. SYK-6, His tag-fused (Sphingobium sp. SYK-6). As to the kind of experiment: SEC; purified DesR (ca. 400 µg) on Superdex 200 Increase 10/300GL, 10 mM KH2PO4-K2HPO4 buffer (pH 7.4) with 140 mM NaCl, 1.0 ml/min; mass estimated against gel-filtration calibration kits (HMW and LMW).

As to `COc1cc(C(=O)O)cc(OC)c1O` [SA, syringate], the “EMSA, inhibition of DNA binding by purified DesR” value at DesR (SLG_12870) is “decrease in the shift bands of the three probes was also observed in a concentration-dependent manner”. Consider “GCCGTTCCCCTCTCAGGCGCTCGAGATCGACAAAGGTCCGCGCCTTGCGCCGGATCAAGGACAGAGCTTGGCCGTGGACGGCCCGGAGTGACCGGATTTTCCGGCCGGTTTCACGCACTGCCCATTCGAAAAAATTTCGTTTGTGTCACATACAGAAGTTCGGCAGTCTGCCGGCATTGCTCAGCACCGGGCGGACCCGGAAGCCGAACATGCAGGAGAGGTCATATGGCAAAGATCATCGGCGGTTT (double strand) [desBp1]”, for which the binding result in series [1] is “binds”.

Usually stoichiometry N stands for the number of molecules, sites or subunits per partner or assembly. Consider “DesR, MarR-type transcriptional regulator (SLG_12870) of Sphingobium sp. SYK-6, His tag-fused (natural protein)”, for which, in series [2], the stoichiometry N is 2.

In the case of `COc1cc(C(=O)O)ccc1O` [VA, vanillate], at DesR (SLG_12870), the “EMSA, inhibition of DNA binding by purified DesR” value was “In the presence of VA, shift bands of these three probes decreased in a concentration-dependent manner”.
